# According to patent US20040005352A1, “Biologically functionalized porous microspheres” (priority 2002, published 2004):
# T1: bacteriorhodopsin (BR) (Halobacterium salinarum, UniProt P02945)
# T1 sequence (P02945 14-262): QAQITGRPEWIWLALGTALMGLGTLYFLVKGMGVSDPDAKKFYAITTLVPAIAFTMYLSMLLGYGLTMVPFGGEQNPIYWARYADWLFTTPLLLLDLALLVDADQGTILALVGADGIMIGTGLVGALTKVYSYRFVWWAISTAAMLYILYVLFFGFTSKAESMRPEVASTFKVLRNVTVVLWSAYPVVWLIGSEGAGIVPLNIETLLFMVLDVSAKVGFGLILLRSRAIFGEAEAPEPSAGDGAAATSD
# Legend:
# bacteriorhodopsin (BR) = target: T1, bacteriorhodopsin (BR); assay: FITC response to illumination of bacteriorhodopsin in the microsphere membrane (flow cytometry); details: for Activity of BR within the microsphere (proton pumping): BR in lipid bilayer on mesoporous microspheres, illumination
# Excerpt: The next investigation was to determine whether a integral membrane protein, bacteriorhodopsin (BR) retained its activity and effect a change on the contents of the microporous microsphere. The natural activity of bacteriorhodpsin is to increase the proton concentration (i.e. pH) upon illumination with the appropriate wavelength of light (ca 510 nm).
# The microspheres were then enveloped with liposomes containing 0.1-5% reconstituted bacteriorhodpsin-containing “purple membrane” from Halobacterium salinarum, in egg phosphatidyl choline.
# [1] = tested on: lipid bilayer of membrane-enclosed microspheres; format: biochemical; details: pH 7.4
# Human DAT protein = Human DAT protein (Homo sapiens, UniProt Q01959); details: anticipated; [3H]DA uptake, 3 min at 34° C.
# Human DAT protein, sequence (Q01959 whole entry): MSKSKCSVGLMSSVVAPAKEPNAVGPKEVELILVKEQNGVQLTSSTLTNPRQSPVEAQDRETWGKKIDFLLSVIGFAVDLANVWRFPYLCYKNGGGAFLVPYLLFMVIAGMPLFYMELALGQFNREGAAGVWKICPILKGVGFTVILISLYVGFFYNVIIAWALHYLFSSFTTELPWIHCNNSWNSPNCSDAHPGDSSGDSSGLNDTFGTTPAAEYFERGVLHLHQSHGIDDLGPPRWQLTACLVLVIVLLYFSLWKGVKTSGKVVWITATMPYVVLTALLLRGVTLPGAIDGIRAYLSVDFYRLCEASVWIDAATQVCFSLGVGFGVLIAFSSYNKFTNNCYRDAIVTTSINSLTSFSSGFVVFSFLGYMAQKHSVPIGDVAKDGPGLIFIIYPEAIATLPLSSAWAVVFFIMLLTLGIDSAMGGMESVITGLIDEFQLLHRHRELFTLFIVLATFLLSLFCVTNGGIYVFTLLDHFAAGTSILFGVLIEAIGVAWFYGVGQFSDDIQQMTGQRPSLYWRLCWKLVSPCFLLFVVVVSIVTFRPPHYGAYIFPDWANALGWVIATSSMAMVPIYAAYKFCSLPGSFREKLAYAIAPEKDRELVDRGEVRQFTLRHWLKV
molecule,measurement,setting,value
"O=[N+]([O-])[O-].O=[N+]([O-])[O-].O=[N+]([O-])[O-].[Gd+3] [Gd(NO3)3, reference compound]",Effect on BR,bacteriorhodopsin (BR); 3 μM Gd(NO3)3,inhibitor of BR
α-hemolysin,Change in Mag-Fluo-4 fluorescence intensity (mean channel fluorescence),[1],increase in fluorescence intensity
NCCc1ccc(O)c(O)c1 [dopamine],Vmax,Human DAT protein,9.0 pmol/10^5 cells/min
"BR: integral membrane protein, light driven proton pump; purple membrane from Halobacterium salinarum (protein, UniProt P02945 14-262, looked up) Bacteriorhodopsin: QAQITGRPEWIWLALGTALMGLGTLYFLVKGMGVSDPDAKKFYAITTLVPAIAFTMYLSMLLGYGLTMVPFGGEQNPIYWARYADWLFTTPLLLLDLALLVDADQGTILALVGADGIMIGTGLVGALTKVYSYRFVWWAISTAAMLYILYVLFFGFTSKAESMRPEVASTFKVLRNVTVVLWSAYPVVWLIGSEGAGIVPLNIETLLFMVLDVSAKVGFGLILLRSRAIFGEAEAPEPSAGDGAAATSD",FITC intensity after several minutes of illumination,"bacteriorhodopsin (BR); 0.1-5% BR purple membrane in egg phosphatidyl choline, white light",decreased
same,Activity of BR within the microsphere (proton pumping),bacteriorhodopsin (BR),active
same,Activity of BR within the microsphere (proton pumping),bacteriorhodopsin (BR); listed as bacteriorhodopsin,photo-induced proton pumping
